Laboratory results as given in US12215106B2, “Pharmaceutical compounds and therapeutic methods” (RUTGERS, THE STATE UNIVERSITY OF NEW JERSEY, priority 2018, dated 2025).
Structures can show the parent of a compound that is named as a salt.

Columns and labels:
PD-L1 = assay: Western blotting of PD-L1 levels in GBM spheres; assay type: cell-based, human
[1] = Toxicity in preclinical mouse models; assay type: in vivo
Caco-2 cells = assay: Bi-directional Caco-2 transport assay; assay type: in vitro ADME; details: for Papp (A-B) / Papp (B-A) / Efflux Ratio (B-A/A-B): human, Caco-2, 90 min, 5 μM; for Papp (A-B) / Papp (B-A): pH 7.4; for P-gp substrate: Caco-2
Experimental: (§1) The objective of the study is to evaluate test compounds as substrates for efflux transporter using Caco-2 cell line. To assess the functionality of P-glycoprotein (P-gp), loperamide was run as a positive control (Apical and basolateral HBSS pH 7.4).
(§2) 5 mM DMSO stock of test compounds and loperamide was diluted 1000-folds in HBSS having 0.1% DMSO to prepare concentrations of 5 μM.
(§3) Caco-2 cells were grown in DMEM (20% FBS) until 85-90% confluence. After attaining required confluence, cells were trypsinized and seeded into 24 well millcell plates at a density of 0.6×10^5 cells/insert. The plates were maintained for 21 days at 37° C. in CO2 incubator with change of medium every alternative day. Monolayer integrity was monitored by measuring Trans-epithelial electrical resistance (TEER) from day 15.
(§4) Caco-2 cell monolayer was washed twice with HBSS and incubated for 40 min in CO2 incubator. TEER values were measured and wells showing TEER values above 230 ohms·cm^2 were taken for experiments. The study was performed in loperamide and test compounds by adding 400 μL of loperamide prepared in HBSS in apical (A-B transport) followed by addition of 800 μL of HBSS on basal side and for B-A transport 800 μL of loperamide prepared in HBSS was dosed in basal followed by addition of 400 μL HBSS on apical side. At selected time points (0, 15, 30, 60 and 90 mins) an aliquot of 50 μL was collected from the receiver compartment for determination of test compound concentrations. The volume withdrawn was replaced immediately with HBSS buffer. TEER was measured at the end to the experiment to confirm any damage of monolayer while performing experiment. Those wells with TEER not meeting the criteria were excluded from the study.
(§5) A 50 μL of test compound samples collected at respective time points and submitted for LC-MS/MS analysis.
(§6) The apparent permeability (Papp) (A−B & B−A) of test compounds and positive control was calculated using the following formula: Papp=dQ/dt/A·Co where, dQ/dt=linear slope of test compound concentration in receptor chamber with time (0, 15, 30, 60 and 90 min) after correcting for dilution; A=area of the filter (0.7 cm^2); and Co=initial concentration of compound in the donor compartment.
(§7) Efflux ratio (RE) was calculated using the following equation: RE=PB/A/PA/B where PB/A and PA/B represent the apparent permeability of test compound from the basal to apical and apical to basal side of cell monolayer.
(§8) Recovery represents: (amount of the compound recovered from donor at end of incubation+cumulative amount of compound in acceptor at end of incubation+amount of the compound in cell lysate or assay well)/amount of compound in donor solution at time zero*100
(§9) Compounds are classified based on Papp values as follows:
(§10) A compound having efflux ratio of >2 is considered as having potential as a P-gp substrate.

GBM cells = assay: Cell viability dose response in GBM cells (Vi-CELL, CellTiter-Glo); assay type: cell-based; details: compared with controls (DMSO and Temozolomide)
Experimental: Small molecules were synthesized by the Molecular Design and Synthesis laboratory, Rutgers Translational Sciences at Rutgers University, NJ, USA. To compare the effects of Exemplary Compound 14 to Comparative Example 100, cells (3×10^5/well) were seeded into the 96-well tissue culture plates and treated with different BMI1 inhibitors (from 10 nM to 10 μM) in appropriate media. Dose response curves were generated upon exposing GBM cells to different concentrations of Exemplary compound 14, Comparative Example 101, and Comparative Example 100 (0.010-10 μM) for 72 hours. Cells were counted using Beckman Coulter Vi-CELL Cell Viability Analyzer, and cell viability was confirmed by CellTiter-Glo Luminescent Cell Viability Assay (Promega, Madison, WI, USA) according to standard protocols and analyzed with a Victor 2 plate reader (Wallac, Turku, Finland). We then assessed the selectivity and potency in GBM cells vs primary GBM. Dose-response curves were generated in both spheres and monocultures and used to determine a sphere selectivity ratio (targeting Glioblastoma Initiating Cells), defined as EC50(U87)/EC50(spheres), for each compound.

[2] = Bi-directional Caco-2 transport assay; assay type: in vitro ADME; details: human; for Papp at 90 min, 5 μM: Caco-2; for Papp A→B at 90 min, 5 μM / Papp B→A at 90 min, 5 μM: Caco-2, pH 7.4
Experimental: as §1, §2, §3, §4, §5, §6, §7, §8, §9, §10

P-gp = assay: Bi-directional Caco-2 transport assay; assay type: in vitro ADME; details: human, Caco-2, Efflux Ratio (B-A/A-B)
Experimental: as §1, §2, §3, §4, §5, §6, §7, §8, §9, §10

In the case of `COc1c(F)cc(Nc2nc(-c3c(C)nc4ccccn34)cs2)cc1F` [Compound 14, hydrochloride], the “PD-L1 levels, time-course” value (PD-L1; 7-10 nM, time-course of 120 hours) is reported as “modulate of the levels of PD-L1”, the toxicity in vivo [1] is reported as “appear not to have toxicity in vivo” and the “Papp (A-B)” value (Caco-2 cells) is reported as 0.0 ± 0.0 10^−6 cm/sec. For the same molecule, the “Papp (B-A)” value (Caco-2 cells) was 0.0 ± 0.0 10^−6 cm/sec and the “sphere selectivity ratio EC50(U87)/EC50(spheres)” value (GBM cells) was “high selectivity for glioblastoma cancer stem cells”.

In the case of `[2H]C([2H])([2H])Oc1ccc(Nc2nc(-c3c(C)nc4ccccn34)cs2)cc1` [Compound 15, N-(4-(methoxy-d3)phenyl)-4-(2-methylimidazo[1,2-c]pyridin-3-yl)thiazol-2-amine hydrochloride], the “Papp (A-B)” value (Caco-2 cells) is reported as 0.0 ± 0.0 10^−6 cm/sec and the “Papp (B-A)” value (Caco-2 cells) is reported as 0.0 ± 0.0 10^−6 cm/sec.

For `Cc1nc2ccccn2c1-c1csc(Nc2ccc3c(c2)OC(F)(F)O3)n1` [Compound 16, N-(2,2-difluorobenzo[d][1,3]dioxol-5-yl)-4-(2-methylimidazo[1,2-a]pyridin-3-yl)thiazol-2-amine hydrochloride], the P-gp substrate (Caco-2 cells) was “not P-gp substrate”, the “Efflux Ratio (B-A/A-B)” value (Caco-2 cells) was 0.9 and the Papp at 90 min, 5 μM [2] was 3 to 15 ×10⁻⁶ cm/s. The Papp A→B at 90 min, 5 μM [2] was 14 ± 3.3 ×10⁻⁶ cm/s and the Papp B→A at 90 min, 5 μM [2] was 12.1 ± 0.1 ×10⁻⁶ cm/s.

In the case of `[2H]C1([2H])Oc2ccc(Nc3nc(-c4c(C)nc5ccccn45)cs3)cc2O1` [Compound 17, N-(benzo[d][1,3]dioxol-5-yl-2,2-d2)-4-(2-methylimidazo[1,2-c]pyridin-3-yl)thiazol-2-amine hydrochloride], the PDL1 levels (PD-L1; GBM spheres, Western blotting) is reported as “increased PDL1”, the efflux ratio at 90 min, 5 μM (P-gp) is reported as < 2 and the P-gp substrate (Caco-2 cells) is reported as “not P-gp substrate”. The “Efflux Ratio (B-A/A-B)” value (Caco-2 cells) was 1.3, the Papp at 90 min, 5 μM [2] was 3 to 15 ×10⁻⁶ cm/s and the Papp A→B at 90 min, 5 μM [2] was 4.9 ± 0.8 ×10⁻⁶ cm/s. It also gave a Papp B→A at 90 min, 5 μM [2] of 6.4 ± 0.6 ×10⁻⁶ cm/s.
